In US20230203043A1, “NOVEL IMIDAZOPYRAZINE DERIVATIVES” (Hoffmann-La Roche Inc., priority 2020, published 2023):
Structures can show the parent of a compound that is named as a salt.

Tested on: Acinetobacter baumannii ATCC17961
Test: Antimicrobial susceptibility testing: 90% growth inhibitory concentration (IC90) determination in Iso-Sensitest broth, OD600 growth
Assay type: cell-based
Conditions: Acinetobacter baumannii, ATCC17961, 16 h, read-out: A. baumannii ATCC 17961 IC90 (uM), strain ATCC 17961, OD600 growth over 16 h
How it was run: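 Compounds were twofold serially diluted in DMSO across 10 points (e.g. 50 to 0.097 μM final) and inoculated at ~5×10^(5) CFU/ml. Plates incubated at 35±2° C, with OD600 read every 20 minutes over 16 h. IC90 was derived from growth inhibition during logarithmic growth.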

SMILES | IC90 [µM]
CCc1cc(Nc2nccn3c(-c4cn(CC#N)nc4C(F)(F)F)cnc23)ccc1C(=O)NCC(=O)NC1CC(N)C1 (stereo not drawn) [Example 675, N-[2-[(3-aminocyclobutyl)amino]-2-oxo-ethyl]-4-[[3-[1-(cyanomethyl)-3-(trifluoromethyl)pyrazol-4-yl]imidazo[1,2-a]pyrazin-8-yl]amino]-2-ethyl-benzamide formate] | 0.315
CCc1cc(Nc2nccn3c(-c4c[nH]nc4C(F)(F)F)cnc23)ccc1C(=O)NCCCNC(=O)[C@@H](C)N [Example 677, (R)-N-(3-(2-aminopropanamido)propyl)-2-ethyl-4-((3-(3-(trifluoromethyl)-1H-pyrazol-4-yl)imidazo [1,2-a]pyrazin-8-yl)amino)benzamide formate] | 0.317
CCc1cc(Nc2nccn3c(-c4cn(CC#N)nc4C(F)(F)F)cnc23)ccc1C(=O)N[C@H](C)C(=O)N1CCNCC1 [Example 678, 4-[[3-[1-(cyanomethyl)-3-(trifluoromethyl)pyrazol-4-yl]imidazo[1,2-a]pyrazin-8-yl]amino]-2-ethyl-N-[(1R)-1-methyl-2-oxo-2-piperazin-1-yl-ethyl]benzamide formate] | 0.321
CCc1cc(Nc2nccn3c(-c4cn(CC#N)nc4C(F)(F)F)cnc23)ccc1C(=O)NCC(=O)N1CC[C@H](N)C1 [Example 681, N-[2-[(3S)-3-aminopyrrolidin-1-yl]-2-oxo-ethyl]-4-[[3-[1-(cyanomethyl)-3-(trifluoromethyl)pyrazol-4-yl]imidazo[1,2-a]pyrazin-8-yl]amino]-2-ethyl-benzamide formate] | 0.327
Cc1cc(Nc2nccn3c(-c4cn(CC#N)nc4C(F)(F)F)cnc23)cc(F)c1C(=O)N1CCN(C(=O)[C@H](C)N)CC1 [Example 682, 2-(4-(8-((4-(4-(L-alanyl)piperazine-1-carbonyl)-3-fluoro-5-methylphenyl)amino)imidazo[1,2-a]pyrazin-3-yl)-3-(trifluoromethyl)-1H-pyrazol-1-yl) acetonitrile formate] | 0.329
C[C@@H](NC(=O)c1ccc(Nc2nccn3c(-c4cn(CC#N)nc4C(F)(F)F)cnc23)cc1Cl)C(=O)NC1CC(N)C1 (stereo partly drawn) [Example 683, N-[(1R)-2-[(3-aminocyclobutyl)amino]-1-methyl-2-oxo-ethyl]-2-chloro-4-[[3-[1-(cyanomethyl)-3-(trifluoromethyl)pyrazol-4-yl]imidazo[1,2-a]pyrazin-8-yl]amino]benzamide formate] | 0.336
Cc1cc(Nc2nccn3c(-c4cn(CC#N)nc4C(F)(F)F)cnc23)cc(F)c1C(=O)N[C@H](C)CNC(=O)CN [Example 689, (R)-N-(1-(2-aminoacetamido)propan-2-yl)-4-((3-(1-(cyanomethyl)-3-(trifluoromethyl)-1H-pyrazol-4-yl)imidazo[1,2-a]pyrazin-8-yl)amino)-2-fluoro-6-methylbenzamide formate] | 0.351
Cc1cc(Nc2nccn3c(-c4cn(CC#N)nc4C(F)(F)F)cnc23)ccc1C(=O)N[C@H](C)C(=O)N1CCC(N)CC1 [Example 690, N-[(1R)-2-(4-amino-1-piperidyl)-1-methyl-2-oxo-ethyl]-4-[[3-[1-(cyanomethyl)-3-(trifluoromethyl)pyrazol-4-yl]imidazo[1,2-a]pyrazin-8-yl]amino]-2-methyl-benzamide formate] | 0.351
CCc1cc(Nc2nccn3c(-c4c[nH]nc4C(F)(F)F)cnc23)ccc1C(=O)NCCNC(=O)CN [Example 691, N-(2-(2-aminoacetamido)ethyl)-2-ethyl-4-((3-(3-(trifluoromethyl)-1H-pyrazol-4-yl)imidazo [1,2-a]pyrazin-8-yl)amino)benzamide formate] | 0.352
CN(C)CCNC(=O)CNC(=O)c1ccc(Nc2nccn3c(-c4cn(CC#N)nc4C(F)(F)F)cnc23)cc1Cl [Example 693, 2-chloro-4-[[3-[1-(cyanomethyl)-3-(trifluoromethyl)pyrazol-4-yl]imidazo[1,2-a]pyrazin-8-yl]amino]-N-[2-[2-(dimethylamino)ethylamino]-2-oxo-ethyl]benzamide formate] | 0.358
Cc1cc(Nc2nccn3c(-c4cn(CC#N)nc4C(F)(F)F)cnc23)cc(F)c1C(=O)N1CCN(C(=O)CN)CC1 [Example 695, 2-(4-(8-((3-fluoro-4-(4-glycylpiperazine-1-carbonyl)-5-methylphenyl)amino)imidazo[1,2-a]pyrazin-3-yl)-3-(trifluoromethyl)-1H-pyrazol-1-yl) acetonitrile formate] | 0.362

Same assay, conditions: Acinetobacter baumannii, ATCC17961, 16 h, strain ATCC 17961, OD600 growth over 16 h, read-out: A. baumannii ATCC 17961 IC90

IC90 [µM] | SMILES
0.313 | CCc1cc(Nc2nccn3c(-c4c[nH]nc4C(F)(F)F)cnc23)ccc1C(=O)NCCOCCN1CCCC1 [Example 672, 2-ethyl-N-(2-(2-(pyrrolidin-1-yl)ethoxy)ethyl)-4-((3-(3-(trifluoromethyl)-1H-pyrazol-4-yl)imidazo[1,2-a]pyrazin-8-yl)amino)benzamide]
0.314 | Cc1cc(Nc2nccn3c(-c4cn(CC(F)F)nc4C(F)(F)F)cnc23)cc(F)c1C(=O)N[C@H](C)CNC(=O)CN [Example 673, (R)-N-(1-(2-aminoacetamido)propan-2-yl)-4-((3-(1-(2,2-difluoroethyl)-3-(trifluoromethyl)-1H-pyrazol-4-yl)imidazo[1,2-a]pyrazin-8-yl)amino)-2-fluoro-6-methylbenzamide]
0.315 | C[C@@H](NC(=O)c1ccc(Nc2nccn3c(-c4cn(CC#N)nc4C(F)(F)F)cnc23)cc1Cl)C(=O)N1CC[C@@H](N)C1 [Example 674, N-[(1R)-2-[(3R)-3-aminopyrrolidin-1-yl]-1-methyl-2-oxo-ethyl]-2-chloro-4-[[3-[1-(cyanomethyl)-3-(trifluoromethyl)pyrazol-4-yl]imidazo[1,2-a]pyrazin-8-yl]amino] benzamide formate]
0.316 | Cc1cc(Nc2nccn3c(-c4cn(CC#N)nc4C(F)(F)F)cnc23)cc(F)c1C(=O)N1CCN(C(=O)[C@H]2[C@@H]3CNC[C@@H]32)CC1 [Example 676, 2-(4-(8-((4-(4-((1R,5S,6r)-3-azabicyclo[3.1.0]hexane-6-carbonyl)piperazine-1-carbonyl)-3-fluoro-5-methylphenyl)amino)imidazo[1,2-a]pyrazin-3-yl)-3-(trifluoromethyl)-1H-pyrazol-1-yl) acetonitrile formate]
0.322 | CCc1cc(Nc2nccn3c(-c4cn(CC(F)F)nc4C(F)(F)F)cnc23)ccc1C(=O)NCC(=O)N1CCNCC1 [Example 679, 4-[[3-[1-(2,2-difluoroethyl)-3-(trifluoromethyl)pyrazol-4-yl]imidazo[1,2-a]pyrazin-8-yl]amino]-2-ethyl-N-(2-oxo-2-piperazin-1-yl-ethyl) benzamide formate]
0.326 | C=CCn1cc(-c2cnc3c(Nc4cc(C)c(C(=O)N[C@H](C)CN)c(F)c4)nccn23)c(C(F)(F)F)n1 [Example 680, (R)-4-((3-(1-allyl-3-(trifluoromethyl)-1H-pyrazol-4-yl)imidazo[1,2-a]pyrazin-8-yl)amino)-N-(1-aminopropan-2-yl)-2-fluoro-6-methylbenzamide]
0.34 | CCc1cc(Nc2nccn3c(-c4cn(CC(F)F)nc4C(F)(F)F)cnc23)ccc1C(=O)N[C@H](C)CNC(=O)[C@@H]1C[C@@H](O)CN1 [Example 684, (2S,4R)-N-((R)-2-(4-((3-(1-(2,2-difluoroethyl)-3-(trifluoromethyl)-1H-pyrazol-4-yl)imidazo[1,2-a]pyrazin-8-yl)amino)-2-ethylbenzamido)propyl)-4-hydroxypyrrolidine-2-carboxamide]
0.34 | CCc1cc(Nc2nccn3c(-c4cn(CC#N)nc4C(F)(F)F)cnc23)ccc1C(=O)NCCCNC(=O)N1CC[C@@H](N)C1 [Example 685, (R)-3-amino-N-(3-(4-((3-(1-(cyanomethyl)-3-(trifluoromethyl)-1H-pyrazol-4-yl)imidazo[1,2-a]pyrazin-8-yl)amino)-2-ethylbenzamido)propyl) pyrrolidine-1-carboxamide formate]
0.343 | Cc1cc(Nc2nccn3c(-c4cn(CC#N)nc4C(F)(F)F)cnc23)ccc1C(=O)NCC(=O)N1CC[C@@H](N)C1 [Example 686, N-[2-[(3R)-3-aminopyrrolidin-1-yl]-2-oxo-ethyl]-4-[[3-[1-(cyanomethyl)-3-(trifluoromethyl)pyrazol-4-yl]imidazo[1,2-a]pyrazin-8-yl]amino]-2-methyl-benzamide]
0.345 | CCc1cc(Nc2nccn3c(-c4cn(CC(F)F)nc4C(F)(F)F)cnc23)ccc1C(=O)NCC(=O)N1CC[C@@H](N)C1 [Example 687, N-[2-[(3R)-3-aminopyrrolidin-1-yl]-2-oxo-ethyl]-4-[[3-[1-(2,2-difluoroethyl)-3-(trifluoromethyl)pyrazol-4-yl]imidazo[1,2-a]pyrazin-8-yl]amino]-2-ethyl-benzamideformate]
0.349 | O=C(c1ccc(Nc2nccn3c(-c4c[nH]nc4C(F)(F)F)cnc23)cc1Cl)N1CC2(C1)CN(C(=O)[C@@H]1CCCN1)C2 [Example 688, (S)-(2-chloro-4-((3-(3-(trifluoromethyl)-1H-pyrazol-4-yl)imidazo[1,2-a]pyrazin-8-yl)amino)phenyl)(6-prolyl-2,6-diazaspiro[3.3]heptan-2-yl)methanone]
0.356 | Cc1cc(Nc2nccn3c(-c4cn(CC(F)F)nc4C(F)(F)F)cnc23)cc(F)c1C(=O)N1CCN(C(=O)[C@H]2[C@@H]3CNC[C@@H]32)CC1 [Example 692, (4-((1R,5S,6r)-3-azabicyclo[3.1.0]hexane-6-carbonyl)piperazin-1-yl)(4-((3-(1-(2,2-difluoroethyl)-3-(trifluoromethyl)-1H-pyrazol-4-yl)imidazo[1,2-a]pyrazin-8-yl)amino)-2-fluoro-6-methylphenyl)methanone]
0.358 | C#CCn1cc(-c2cnc3c(Nc4ccc(C(=O)N5CCN(C(=O)[C@H](C)N)CC5)c(CC)c4)nccn23)c(C(F)F)n1 [Example 694, (S)-2-amino-1-(4-(4-((3-(3-(difluoromethyl)-1-(prop-2-yn-1-yl)-1H-pyrazol-4-yl)imidazo[1,2-a]pyrazin-8-yl)amino)-2-ethylbenzoyl)piperazin-1-yl)propan-1-one]
